Reference: ChEMBL document CHEMBL1137248, “2-(3-Amino-3-deoxy-beta-D-xylofuranosyl)thiazole-4-carboxamide: a new tiazofurin analogue with potent antitumour activity” (Bioorg Med Chem Lett, 2006)

Columns and labels:
Format in all cases: cell-based
[1] = tested on: MRC5; assay: Cytotoxicity against MRC5 cells after 24 hrs by MTT assay; settings: Homo sapiens, MRC5, 24 h
[2] = tested on: HT-29; assay: Cytotoxicity against HT29 cells after 24 hrs by MTT assay; settings: Homo sapiens, HT-29, 24 h
[3] = tested on: Jurkat; assay: Cytotoxicity against Jurkat cells after 24 hrs by MTT assay; settings: Homo sapiens
[4] = tested on: HeLa; assay: Cytotoxicity against HeLa cells after 24 hrs by MTT assay; settings: Homo sapiens
[5] = tested on: K562; assay: Cytotoxicity against human K562 cells after 24 hrs by MTT assay; settings: K562, 24 h

Q: What does the source list for `NC(=O)c1csc([C@@H]2O[C@H](CO)[C@H](N)[C@H]2O)n1`?
A: IC50 [1]: > 100000 nM; IC50 [2]: 37 nM; IC50 [3]: 60 nM; IC50 [4]: 280 nM; IC50 [5]: 52 nM

Q: Which IC50 [1] does the source give for `CC(=O)N[C@@H]1[C@@H](O)[C@H](c2nc(C(N)=O)cs2)O[C@@H]1CO` here?
A: 89700 nM

Q: And the IC50 [2]?
A: 1000 nM

Q: What about the IC50 [3] of the same compound?
A: 450 nM

Q: And the IC50 [4]?
A: > 100000 nM

Q: What about the IC50 [5] of the same compound?
A: 95 nM

Q: Which results are given for `NC(=O)c1csc([C@@H]2O[C@H](CO)[C@@H](O)[C@H]2O)n1` [TIAZOFURIN]?
A: IC50 [3]: 140 nM; IC50 [4]: 4760 nM; IC50 [5]: 5290 nM
